The values below are quoted from earlier work in patent US8865899B2 (AstraZeneca AB, priority 2006, dated 2014).

The subject of one series is VEGF RTK. Particulars: statement in words, background.
For another series, the system named is tumour models. Particulars: once-daily oral administration; Wedge et al, Proc. Am. Assoc. Canc. Res. 2001; 42: abstract 3126.

For `COc1cc2c(Nc3ccc(Br)cc3F)ncnc2cc1OCC1CCN(C)CC1` [ZD6474, 4-(4-bromo-2-fluoroanilino)-6-methoxy-7-(1-methylpiperidin-4-ylmethoxy)quinazoline], the “inhibition of VEGF RTK” value with VEGF RTK is “potent inhibitor”. In addition, in the series on tumour models, the anti-tumour activity entry is “broad-spectrum anti-tumour activity”.
